We go through one molecule from US20040176466A1, “Combination therapy for the treatment of neurological disorders” (priority 2001, published 2004).

For series [1] the following is noted: cited from earlier work.
A short description of series [2]: Steady-state pharmacokinetics of atomoxetine alone and coadministered with paroxetine in CYP2D6 extensive metabolizers. Type of series: in vivo. The note with it: both sexes, human, plasma, oral; for AUC: read-out: AUC0-τ; for Vd/F: read-out: Vz/F. The protocol:
The study was conducted at the Lilly Laboratory for Clinical Research in Indianapolis, Ind. The protocol and informed consent documents were approved by the Institutional Review Board of Indiana University—Purdue University at Indianapolis. The study was conducted in accordance with the Declaration of Helsinki. All participants provided informed written consent before enrollment into the study. All volunteers were considered to be healthy on the basis of medical history, electrocardiographic findings, and routine clinical laboratory tests. Volunteers with clinically abnormal results were excluded from the study.
Only CYP2D6 extensive metabolizers, as determined by genotyping and phenotyping analyses, were entered in this study. CYP2D6 genotype was performed by PPGx (Morrisville, N.C.). DNA from whole blood samples were isolated and purified and analyzed for CYP2D6 genotype using a validated PCR ([…]) method. CYP2D6 genotype was evaluated by testing the *3, *4, *5, *6, *7, and *8 poor metabolizer (PM) alleles. If patients were homozygous for any combination of these alleles, a PM genotype was assigned; otherwise, an extensive metabolizer genotype (EM) was assigned. CYP2D6 phenotype was performed using the urine ratio of dextromethorphan/dextrorphan following an oral dose of dextromethorphan. Volunteers with a ratio greater than 0.3 were assigned a PM phenotype, and those with a ratio less than 0.3 were assigned an EM phenotype.
This was a single-blind, sequential study composed of two periods. […] Doses were administered with 240 mL of water.
Pharmacokinetic parameter estimates were calculated with noncompartmental analysis by using WinNonlin Professional Version 2.1 (Pharsight Corp, Mountain View, Calif.). The steady state maximum plasma concentration (Css,max), and the corresponding time of the maximum concentration (Tmax) were observed values. The elimination rate constant (λz) was determined as the slope of the linear regression for the terminal log-linear portion of the concentration-time curve. Terminal half-life (t1/2) was calculated as ln(2)/λz. The area under the plasma concentration time curve (AUC0-τ) over the dosing interval was estimated by the linear trapezoidal method. […] Apparent clearance (CLss/F) and apparent volume of distribution (Vz/F) were calculated as Dose/AUC0-τ and as (CLss/F)/λz, respectively.
Except for Tmax, all parameters were log transformed, and a mixed-effect analysis of variance was performed with subject as a random effect. […] For Tmax, a Wilcoxon sign-rank test was performed. Data from all subjects who received study drug are included in the pharmacokinetic and statistical analyses, except for the Tmax analyses that excluded subjects with measurements for only one treatment. Statistical analyses were performed with SAS Version 6.12 (SAS Institute, Cary, N.C.).

The subject of another series is ADHD. Description: Study of atomoxetine versus placebo in the treatment of ADHD. Type of series: in vivo, human. The text has this: Inter-individual variability in drug metabolism poses a challenge in predicting dosing, safety, and efficacy of a drug. Pharmacokinetic factors, as well as substantial intersubject pharmacodynamic variability, have been proposed as a factor in cases of therapeutic failure of methylphenidate (DeVane, et al., Journal of Clinical Psychopharmacology, 20(3), 347 (2000)).

Several values for one entry are separate records, joined by “and”; a condition that tells them apart may be missing. Equal values may be shown once. Read-outs that look alike come from different tables or passages of the source.

In the case of `CNCC[C@@H](Oc1ccccc1C)c1ccccc1` [Atomoxetine, (R)-(−)-N-methyl-3-(2-methylphenoxy)-3-phenylpropylamine], in series [1] (majority of patients), the mean half-life was 4.5 ± 1.1 h. Further, the half-life – broadly, how long it takes for the measured level to halve – was 17.1 h and 21 h in series [1] (two patients (second class of kinetic disposition)); 3.92 h in series [2] (20 mg, atomoxetine alone); 4.03 h in series [2] (20 mg, atomoxetine alone (Period 1), steady state, mean (range), n = 21); 10 h in series [2] (after concomitant paroxetine administration); 11 h in series [2] (atomoxetine with paroxetine (Period 2), steady state, mean (range), n = 14). Also, the Tmax (as a rule, the time from dosing to the highest level) was 1 h in series [2] (20 mg, atomoxetine alone (Period 1), steady state, median (range), n = 21, read-out: Tmax); 1.5 h in series [2] (atomoxetine with paroxetine (Period 2), steady state, median (range), n = 14, read-out: Tmax); 0.5 h in series [2] (atomoxetine with paroxetine versus atomoxetine alone, read-out: median of the paired difference in Tmax). Also, the AUC was determined as 846 ng·h/mL in series [2] (20 mg) and 5970 ng·h/mL in series [2]. Further, the Vd/F in series [2] (20 mg) was found to be 2.2 L/kg; in series [2] it was 0.803 L/kg. The “response to atomoxetine treatment” value in the series with ADHD (poor metabolizer ADHD patients) is listed as “greater response”. In addition, the “efficacy in the treatment of ADHD versus placebo” value in the series with ADHD (regardless of CYP2D6 status, extensive or poor metabolizer) is reported as “robustly better than placebo”.
